Measured values reported in patent EP0020266A1, “Derivatives of cyano-2-hydroxy-3-benzofurane and benzo(b)thiophene, their preparation and their use in therapy” (ANVAR Agence Nationale de Valorisation de la Recherche, priority 1979, dated 1980).
Where “and” joins values, the source holds several entries; their conditions need not be identical. Equal values may be shown once. Read-outs that look alike come from different tables or passages of the source.

Columns and labels:
[1] = molecular target: T1, récepteurs S2-bronchiques (Cavia porcellus, UniProt Q8K4Z4); assay: Inhibition of the protection given by isoprenaline against serotonin bronchospasm (Konzett and Roessler, modified by Halpern); format: in vivo, cobaye; conditions: guinea pig, i.v. 250 µg/kg; for inhibition at 0.25 mg/kg: iv, number in parentheses
T1 construct: a été étudiée chez le cobaye, à raison de cinq animaux par essai; from tissue; host or cells: whole guinea pig (bronchi, in vivo)
T1 sequence (Q8K4Z4 whole entry): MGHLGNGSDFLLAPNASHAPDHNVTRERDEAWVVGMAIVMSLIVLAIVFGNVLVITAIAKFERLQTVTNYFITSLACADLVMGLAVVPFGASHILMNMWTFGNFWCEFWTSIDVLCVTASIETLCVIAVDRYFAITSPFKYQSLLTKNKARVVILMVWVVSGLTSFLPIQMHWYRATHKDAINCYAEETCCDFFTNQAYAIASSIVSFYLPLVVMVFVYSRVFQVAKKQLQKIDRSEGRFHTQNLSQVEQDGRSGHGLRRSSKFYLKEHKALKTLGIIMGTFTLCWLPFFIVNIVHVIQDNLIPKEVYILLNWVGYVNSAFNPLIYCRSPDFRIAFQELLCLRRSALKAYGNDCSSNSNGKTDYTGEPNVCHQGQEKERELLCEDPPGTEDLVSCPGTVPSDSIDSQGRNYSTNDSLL
Procedure: L'action β2-adrénolytique au niveau bronchique a été étudiée chez le cobaye, à raison de cinq animaux par essai, en recherchant l'inhibition de la protection exercée par l'isoprénaline vis-à-vis du bronchospasme à la sérotonine, selon la méthode de Konzett et Roessler (Arch. Exper. Pathol. Pharmakol., 1940, 195, 71) modifiée par Halpern.
Les composés sont administrés par voie i.v. à la dose de 250 µg/kg.

[2] = molecular target: T2, récepteurs β1-cardiaques (Cavia porcellus, UniProt H0W3H1); assay: Antagonism of the effects of isoprenaline on the isolated guinea-pig atrium (method of Giudicelli, Schmitt and Boissier); set-up: species or system cobaye; conditions: for Effet inotrope + de l'isoprénaline Concentration active Après produit: isoprenaline concentration giving a 10 mm increase of the trace amplitude; for Effet chronotrope + de l'isoprénaline Concentration active Après produit: isoprenaline concentration giving an increase of 30 beats per min
T2 construct: sur l'oreillette isolée de cobaye; from tissue; host or cells: isolated guinea-pig atrium
T2 sequence (H0W3H1 1-470): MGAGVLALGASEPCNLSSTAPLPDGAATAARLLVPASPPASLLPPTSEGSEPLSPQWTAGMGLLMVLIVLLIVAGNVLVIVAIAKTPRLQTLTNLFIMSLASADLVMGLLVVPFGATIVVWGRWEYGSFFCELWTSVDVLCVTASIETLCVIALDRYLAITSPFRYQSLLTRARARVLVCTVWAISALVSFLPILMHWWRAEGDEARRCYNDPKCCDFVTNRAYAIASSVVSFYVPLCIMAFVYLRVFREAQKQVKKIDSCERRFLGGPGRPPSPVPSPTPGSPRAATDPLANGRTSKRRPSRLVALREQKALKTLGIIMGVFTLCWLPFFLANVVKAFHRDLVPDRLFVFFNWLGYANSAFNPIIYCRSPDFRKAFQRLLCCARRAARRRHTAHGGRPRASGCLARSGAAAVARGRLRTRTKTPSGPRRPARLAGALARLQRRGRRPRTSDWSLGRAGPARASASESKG
From the text: L'activité 8-lytique a été recherchée au niveau des récepteurs β1-cardiaques en déterminant l'antagonisme des effets de l'isoprénaline sur l'oreillette isolée de cobaye, selon la méthode de Giudicelli, Schmitt et Boissier (J. Pharmacol. Exper. Thérapeut., 1969, 168, 116). […]
Afin de ne pas surcharger inutilement les tableaux suivants, seuls les résultats correspondant au composé n° 2 sont indiqués.

[3] = dose of product 1.10^-10 mole/cm^3
[4] = dose of product 1.10^-10 mole/cm^3, ratio of active concentrations after and before addition of product
[5] = dose of product 5.10^-10 mole/cm^3

CC(C)(C)NCC(O)COc1c(C#N)sc2ccccc12 (stereo not drawn) [compound 2]
Moyenne de l'amplitude Après administration, au bout de 1 min ([1]; 1 min after administration, five animals): 20,4 ± 1,4 | Moyenne de l'amplitude Après administration, au bout de 8 min ([1]; 8 min after administration, five animals): 3,8 ± 2,4 | Moyenne de l'amplitude Après administration, au bout de 16 min ([1]; 16 min after administration, five animals): 0,6 ± 0,6 | Moyenne de l'amplitude Après administration, au bout de 30 min ([1]; 30 min after administration, five animals): 0 | Moyenne de l'amplitude Après administration, au bout de 60 min ([1]; 60 min after administration, five animals): 0 | blocage des récepteurs S2-bronchiques ([1]; compared with propranolol, summary of Table III): très fugace | inhibition at 0.25 mg/kg ([1]; 1 min after administration, read-out: pourcentages d'inhibition de l'isoprénaline, 1 min (converted)): 82% | inhibition at 0.25 mg/kg ([1]; 8 min after administration, read-out: pourcentages d'inhibition de l'isoprénaline, 8 min (converted)): 15% | inhibition at 0.25 mg/kg ([1]; 16 min after administration, read-out: pourcentages d'inhibition de l'isoprénaline, 16 min (converted)): 2% | activité β1-stimulante ([2]; at low concentrations, compared with propranolol, summary of Table II): proche de celle du propranolol | Effet inotrope + de l'isoprénaline Concentration active Après produit [2, 3]: 7,6.10^-8 | Effet chronotrope + de l'isoprénaline Concentration active Après produit [2, 3]: 3,8.10^-8 | Effet chronotrope + de l'isoprénaline Index d'activité [2, 4]: 7 | Effet inotrope + de l'isoprénaline Index d'activité [2, 4]: 6,5 | Effet chronotrope + de l'isoprénaline Concentration active Après produit [2, 5]: 1,5.10^-7 and 1,8.10^-7 | antagonisme des effets de l'isoprénaline (effet inotrope + et effet chronotrope +) ([2]; isolated atrium, single concentration 1.10^-7 g/cm^3, five preparations per product, given as maleate): suffisamment efficace

CC(C)NCC(O)COc1cccc2ccccc12 (stereo not drawn) [propranolol, isopropylamino-1 (naphtyl-1 oxy)-3 propanol-2, reference compound]
Effet inotrope + de l'isoprénaline Concentration active Après produit [2, 5]: 5,8.10^-8 | Effet chronotrope + de l'isoprénaline Concentration active Après produit [2, 5]: 1,8.10^-7
